Data from article PMC5423244, “Synthesis and Biological Evaluation of N-(5-(pyridin-2-yl)-1,3,4-thiadiazol-2-yl)benzamide Derivatives as Lipoxygenase Inhibitor with Potential Anticancer Activity” (Iranian Journal of Pharmaceutical Research : IJPR, 2017).

Target: T1, SLO; 15-lipoxygenase-1 (15-LOX-1) (Glycine max, UniProt P08170)
T1 construct: gene LOX1.1; SLO (abbreviation not spelt out); the introduction and aim speak of human 15-LO-1
T1 sequence (P08170 1-839): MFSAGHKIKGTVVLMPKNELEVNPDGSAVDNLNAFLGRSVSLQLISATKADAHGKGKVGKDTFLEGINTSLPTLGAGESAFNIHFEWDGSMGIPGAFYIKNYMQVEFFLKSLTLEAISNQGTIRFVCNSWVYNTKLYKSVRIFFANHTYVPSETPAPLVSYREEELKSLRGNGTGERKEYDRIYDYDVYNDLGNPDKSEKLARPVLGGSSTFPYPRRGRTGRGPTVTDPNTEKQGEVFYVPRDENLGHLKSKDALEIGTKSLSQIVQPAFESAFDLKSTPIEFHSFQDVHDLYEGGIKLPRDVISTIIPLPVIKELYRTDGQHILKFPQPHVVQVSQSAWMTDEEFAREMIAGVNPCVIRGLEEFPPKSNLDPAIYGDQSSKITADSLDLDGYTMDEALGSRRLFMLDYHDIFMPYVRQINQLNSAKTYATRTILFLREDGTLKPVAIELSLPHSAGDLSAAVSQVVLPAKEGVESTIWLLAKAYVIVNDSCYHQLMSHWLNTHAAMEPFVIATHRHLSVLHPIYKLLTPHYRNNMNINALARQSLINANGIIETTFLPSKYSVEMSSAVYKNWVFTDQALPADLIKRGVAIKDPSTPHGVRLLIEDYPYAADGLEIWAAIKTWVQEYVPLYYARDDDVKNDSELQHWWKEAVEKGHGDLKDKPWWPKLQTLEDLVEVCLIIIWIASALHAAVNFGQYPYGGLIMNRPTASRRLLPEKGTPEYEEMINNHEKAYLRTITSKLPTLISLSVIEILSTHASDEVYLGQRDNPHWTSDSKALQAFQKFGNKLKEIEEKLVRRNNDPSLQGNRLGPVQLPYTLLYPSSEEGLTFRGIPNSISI
Test: linoleic acid hydroperoxide by MBTH/DMAB/hemoglobin colour reaction, […] nm
Format: biochemical

| Structure (SMILES) | inhibition at 200 µM [%] |
| --- | --- |
| COc1ccccc1C(=O)Nc1nnc(-c2ccccn2)s1 [4j, 2-Methoxy-N-(5-(pyridin-2-yl)-1,3,4-thiadiazol-2-yl)benzamide] | 28 |
| O=C(Nc1nnc(-c2ccccn2)s1)c1ccc(F)cc1 [4f, 4-Fluoro-N-(5-(pyridin-2-yl)-1,3,4-thiadiazol-2-yl)benzamide] | 25 |
| O=C(Nc1nnc(-c2ccccn2)s1)c1ccccc1Cl [4a, 2-Chloro-N-(5-(pyridin-2-yl)-1,3,4-thiadiazol-2-yl)benzamide] | 8 |
| COc1cccc(C(=O)Nc2nnc(-c3ccccn3)s2)c1 [4k, 3-Methoxy-N-(5-(pyridin-2-yl)-1,3,4-thiadiazol-2-yl)benzamide] | 26 |
| O=C(Nc1nnc(-c2ccccn2)s1)c1ccc(Cl)cc1 [4c, 4-Chloro-N-(5-(pyridin-2-yl)-1,3,4-thiadiazol-2-yl)benzamide] | 12 |
| O=C(Nc1nnc(-c2ccccn2)s1)c1cccc(F)c1 [4e, 3-Fluoro-N-(5-(pyridin-2-yl)-1,3,4-thiadiazol-2-yl)benzamide] | 13 |
| COc1ccc(C(=O)Nc2nnc(-c3ccccn3)s2)cc1 [4l, 4-Methoxy-N-(5-(pyridin-2-yl)-1,3,4-thiadiazol-2-yl)benzamide] | 14 |
| O=C(Nc1nnc(-c2ccccn2)s1)c1cccc(Cl)c1 [4b, 3-Chloro-N-(5-(pyridin-2-yl)-1,3,4-thiadiazol-2-yl)benzamide] | 8 |
| O=C(Nc1nnc(-c2ccccn2)s1)c1ccccc1F [4d, 2-Fluoro-N-(5-(pyridin-2-yl)-1,3,4-thiadiazol-2-yl)benzamide] | 17 |
